According to paper PMC6222357, “Liquid Chromatography-Tandem Mass Spectrometry Simultaneous Determination and Pharmacokinetic Study of Fourteen Alkaloid Components in Dog Plasma after Oral Administration of Corydalis bungeana Turcz Extract” (Molecules : A Journal of Synthetic Chemistry and Natural …, 2018):

How the values were obtained:
[1] = Stability of the analytes in beagle plasma QC samples under different storage conditions; assay type: physicochemical, beagle dog; details: n = 6; for Stability (% RE) Long-Term: 2 weeks at −80 °C; for Stability (% RE) Short-Term: 4 h at ambient temperature; for Stability (% RE) Freeze-Thaw: three freeze (−80 °C)-thaw cycles; for Stability (% RE) Post-Preparative: 12 h after sample preparation at 4 °C
Method: As illustrated in Table 4. The stability of QC samples at three evaluated concentrations contained low, medium and high under different stored conditions was assessed on the basis of peak areas in comparison with freshly prepared QC sample.
(§1) The stability of the fourteen analytes in beagle dogs investigated by analyzing QC samples of each analyte at three QC levels (LQC, MQC and HQC) and each level contained six replicates. The short-term stability was assessed during storage for 4 h at ambient temperature. The long-term stability was determined after the QC samples had been stored for 2 weeks at −80 °C. The freeze-thaw stability was determined after three freeze at −80 °C and thaw cycles. and post-preparative stability was during storage for 12 h after sample preparation at 4 °C. The room temperature stability for stock solution was determined after storing the sample at 25 °C for 24 h. A series of concentrations of stability testing QC samples was gained by the calibration curve which was established from freshly prepared standard samples.

[2] = Pharmacokinetic study in beagle dogs after oral administration of C. bungeana extract (UHPLC-MS/MS of plasma); details: for AUC(0-inf) / AUC(0-t) / Cmax / Tmax / half-life: male, beagle, dog, plasma, po, 0.12 g/kg; for Shape of plasma concentration-time profile / Time of first peak of plasma concentration-time profile / Time of second peak of plasma concentration-time profile: beagle dog plasma; for Shape of plasma concentration-time profile: oral C. bungeana extract 0.12 g/kg; for Time of first peak of plasma concentration-time profile / Time of second peak of plasma concentration-time profile: oral C. bungeana extract, post-dose
Method: The developed UHPLC-MS/MS method was employed to determine the pharmacokinetics of the fourteen components in C. bungeana after a single oral administration of 0.12 g/kg (equivalent to 1180.8 µg/kg A, 100.8 µg/kg B, 172.8 µg/kg C, 194.4 µg/kg D, 147.6 µg/kg E, 291.6 µg/kg F, 7.2 µg/kg G, 64.8 µg/kg H, 10.8 µg/kg I, 435.6 µg/kg J, 7.2 µg/kg K, 2851.2 µg/kg L, 694.8 µg/kg M, 928.8µg/kg N) to six beagle dogs. […] According to the Meeh-Rubn method, we established a final oral dosage of 0.12 g/kg in dogs. The plasma concentrations of the fourteen components at each time point were detected and the data gained from six beagle dogs were averaged.
Before the experiment, the beagle dogs were fasted for 12 h but given water during the research period. Blood (300 µL) was collected from the forelimb vein plexus at a few specific time points (0.083, 0.25, 0.5, 0.75 and 1, 2, 3, 4, 6, 8, 12, 24 h) after the oral administration of the extract of C. bungeana (0.12 g/kg). After centrifugation at 13,000 rpm for 10 min, the plasma was collected immediately and maintained at −80 °C until sample analysis.
Using a liquid-liquid extraction method, 100 µL of methanol and 50 µL of IS (bifendate) were added to a beagle dog plasma sample (100 µL) followed by vortex for 30 s. Then 3 mL of aether was accurately added and the mixture was vortexed for 60 s. After this step, the samples were put into a centrifuge (XiangYi Technologies, Changsha, Hunan, China). The organic supernatant was pipetted into clean glass tubes individually after centrifugation 3800 rpm for 6 min. The upper organic layer was removed and evaporated to dryness at 40 °C under a stream of nitrogen. The residue was then redissolved with 100 µL of mobile phase (28% acetonitrile), vortexed for 30 s and filtered by a 0.22 µm membrane. A 10 µL aliquot of the solution was injected into the UHPLC-MS/MS system for analysis.
Concentrations of fourteen alkaloids in beagle dog blood were calculated employing the Excel program (Microsoft Corp., Redmond, WA, USA). Pharmacokinetic parameters were calculated using non-compartmental methods. The elimination rate constant (Ke) was calculated employing the linear regression of the terminal points in a semi-log plot of the plasma concentration against time. The elimination half-life (t1/2) was calculated using the formula. t1/2 = 0.693/Ke(1)
The area under the blood concentration versus time curve up to the last quantifiable time point (AUC0→t) was calculated by the linear trapezoidal rule. The area under the plasma concentration –time curve to time infinity (AUC0→∞) was calculated as follows: AUC0→∞ = AUC0→t + Ct/Ke(2)
The maximum observed blood concentration (Cmax) and the time to reach maximum observed blood concentration (Tmax) were obtained directly from the concentration-time curve.

[3] = Room temperature stability of stock solution; assay type: physicochemical; details: 25 °C for 24 h, n = 6
Method: as §1

Row | Stability (% RE) Long-Term ([1]; high QC in beagle plasma) [% RE] | Stability (% RE) Short-Term ([1]; high QC in beagle plasma) [% RE] | Stability (% RE) Freeze-Thaw ([1]; high QC in beagle plasma) [% RE] | Stability (% RE) Post-Preparative ([1]; high QC) [% RE] | Stability (% RE) Long-Term ([1]; low QC in beagle plasma) [% RE] | Stability (% RE) Short-Term ([1]; low QC in beagle plasma) [% RE] | Stability (% RE) Freeze-Thaw ([1]; low QC in beagle plasma) [% RE] | Stability (% RE) Post-Preparative ([1]; low QC) [% RE] | Stability (% RE) Long-Term ([1]; medium QC in beagle plasma) [% RE] | Stability (% RE) Short-Term ([1]; medium QC in beagle plasma) [% RE] | Stability (% RE) Freeze-Thaw ([1]; medium QC in beagle plasma) [% RE] | Stability (% RE) Post-Preparative ([1]; medium QC) [% RE] | AUC(0-inf) [2] [ng·h/mL] | AUC(0-t) [2] [ng·h/mL] | Cmax [2] [ng/mL] | Tmax [2] [h] | half-life [2] [h] | Stability (% RE) Room Temperature for Stock-Solution ([3]; high QC level) [% RE] | Stability (% RE) Room Temperature for Stock-Solution ([3]; low QC level) [% RE] | Stability (% RE) Room Temperature for Stock-Solution ([3]; medium QC level) [% RE] | Structure (SMILES) | further results
1 | 7.32 | −4.81 | −4.20 | 2.05 | 8.62 | 6.47 | 5.17 | 12.65 | 7.56 | 6.74 | −3.75 | −3.44 | 244 ± 26.2 | 230 ± 18.6 | 107 ± 4.63 | 0.58 ± 0.13 | 5.52 ± 0.93 | 3.69 | −1.83 | 2.57 | CC(=O)O[C@H]1Cc2cc3c(cc2[C@H]2N(C)Cc4c(ccc5c4OCO5)[C@@]12C)OCO3 [Acetylcorynoline, acetylcorynoline] | –
2 | 9.74 | 6.81 | 7.95 | 5.40 | 13.95 | −2.63 | 6.11 | 7.14 | 6.81 | 9.25 | 6.78 | −2.98 | 755 ± 58.9 | 734 ± 57.5 | 224 ± 15.3 | 0.96 ± 0.1 | 4.25 ± 0.81 | – | – | – | CN1Cc2c(ccc3c2OCO3)[C@@]2(C)[C@@H](O)Cc3cc4c(cc3[C@@H]12)OCO4 [Corynoline, corynoline] | Shape of plasma concentration-time profile [2]: conspicuous bimodal phenomenon; Time of first peak of plasma concentration-time profile [2]: 0.5 to 1 h; Time of second peak of plasma concentration-time profile [2]: 4 to 8 h
3 | 10.23 | 5.15 | 10.09 | 8.76 | −5.67 | 9.24 | 11.34 | 10.82 | 11.88 | 3.11 | 12.23 | 8.29 | 622 ± 52.5 | 585 ± 59.9 | 205 ± 22.4 | 0.92 ± 0.13 | 5.58 ± 1.46 | 1.28 | 2.97 | 4.65 | COc1cc2c(cc1OC)[C@@H]1Cc3ccc(OC)c(OC)c3CN1CC2 [Terahydropalmatine, tetrahydropalmatine] | –
4 | 3.13 | −2.89 | −3.58 | 10.60 | 3.08 | 1.62 | 1.18 | 3.71 | 5.35 | −3.92 | 9.69 | 10.01 | 284 ± 62.4 | 260 ± 64.2 | 94.5 ± 22.8 | 0.92 ± 0.13 | 6.98 ± 1.76 | 2.30 | −4.08 | 3.77 | CN1C(=O)c2c(ccc3c2OCO3)C2(C)C(O)Cc3cc4c(cc3C12)OCO4 (centres unmarked) [8-oxocorynoline] | –
5 | 11.04 | 6.73 | 8.37 | −7.08 | 7.79 | 9.42 | 10.26 | 6.92 | 10.77 | −6.30 | 8.08 | 9.22 | 9580 ± 596 | 8040 ± 459 | 1900 ± 84.9 | 0.96 ± 0.1 | 8.56 ± 1.29 | – | – | – | COc1cc2c(cc1OC)-c1cc3ccc(OC)c(OC)c3c[n+]1CC2 [Palmatine, palmatine] | Shape of plasma concentration-time profile [2]: conspicuous bimodal phenomenon; Time of first peak of plasma concentration-time profile [2]: 0.5 to 1 h; Time of second peak of plasma concentration-time profile [2]: 4 to 8 h
6 | 7.00 | 11.96 | 7.71 | 10.36 | 7.75 | 9.61 | 12.57 | 11.84 | 7.72 | 7.42 | 11.60 | 9.39 | 3770 ± 139 | 3690 ± 141 | 1370 ± 313 | 0.92 ± 0.13 | 2.49 ± 0.14 | −3.26 | 2.22 | 4.08 | COc1ccc2cc3[n+](cc2c1OC)CCc1cc2c(cc1-3)OCO2 [Berberine, berberine] | Shape of plasma concentration-time profile [2]: conspicuous bimodal phenomenon; Time of first peak of plasma concentration-time profile [2]: 0.5 to 1 h; Time of second peak of plasma concentration-time profile [2]: 4 to 8 h
7 | 11.01 | 10.78 | 10.06 | 5.08 | 11.85 | 11.76 | 12.88 | 5.99 | 3.75 | 5.82 | 5.15 | 7.97 | 1200 ± 86.3 | 1160 ± 94.2 | 450 ± 61.6 | 0.96 ± 0.1 | 4.88 ± 1.72 | 3.65 | −2.05 | 1.25 | COc1ccc2cc3[n+](cc2c1O)CCc1cc2c(cc1-3)OCO2 [Berberrubine, berberrubine] | –

Row | Structure (SMILES) | Stability (% RE) Long-Term ([1]; high QC in beagle plasma) [% RE] | Stability (% RE) Short-Term ([1]; high QC in beagle plasma) [% RE] | Stability (% RE) Freeze-Thaw ([1]; high QC in beagle plasma) [% RE] | Stability (% RE) Post-Preparative ([1]; high QC) [% RE] | Stability (% RE) Long-Term ([1]; low QC in beagle plasma) [% RE] | Stability (% RE) Short-Term ([1]; low QC in beagle plasma) [% RE] | Stability (% RE) Freeze-Thaw ([1]; low QC in beagle plasma) [% RE] | Stability (% RE) Post-Preparative ([1]; low QC) [% RE] | Stability (% RE) Long-Term ([1]; medium QC in beagle plasma) [% RE] | Stability (% RE) Short-Term ([1]; medium QC in beagle plasma) [% RE] | Stability (% RE) Freeze-Thaw ([1]; medium QC in beagle plasma) [% RE] | Stability (% RE) Post-Preparative ([1]; medium QC) [% RE] | AUC(0-inf) [2] [ng·h/mL] | AUC(0-t) [2] [ng·h/mL] | Cmax [2] [ng/mL] | Tmax [2] [h] | half-life [2] [h] | Stability (% RE) Room Temperature for Stock-Solution ([3]; high QC level) [% RE] | Stability (% RE) Room Temperature for Stock-Solution ([3]; low QC level) [% RE] | Stability (% RE) Room Temperature for Stock-Solution ([3]; medium QC level) [% RE] | further results
8 | COc1cc2c(cc1O)CC[n+]1cc3c(OC)c(OC)ccc3cc1-2 [Jateorhizine, jateorhizine] | 8.26 | 6.64 | 6.24 | 8.41 | 12.90 | 7.31 | 10.65 | 6.63 | 10.30 | 3.05 | 8.68 | 8.51 | 163 ± 11 | 151 ± 6.42 | 74.2 ± 8.71 | – | 6.29 ± 1.09 | 1.32 | 1.16 | −3.58 | Shape of plasma concentration-time profile [2]: conspicuous bimodal phenomenon; Time of first peak of plasma concentration-time profile [2]: 0.5 to 1 h; Time of second peak of plasma concentration-time profile [2]: 4 to 8 h
9 | COc1cc2c(cc1O)-c1cc3ccc(OC)c(OC)c3c[n+]1CC2 [Columbamine, columbamine] | 10.24 | 9.67 | 5.60 | 12.44 | 9.66 | 8.47 | 11.50 | 8.80 | 11.77 | 4.02 | 12.73 | 5.50 | 7030 ± 290 | 6830 ± 170 | 2130 ± 196 | 0.92 ± 0.13 | 2.87 ± 0.42 | 2.50 | 4.02 | 1.62 | Shape of plasma concentration-time profile [2]: conspicuous bimodal phenomenon; Time of first peak of plasma concentration-time profile [2]: 0.5 to 1 h; Time of second peak of plasma concentration-time profile [2]: 4 to 8 h
